Here are results for six compounds from paper PMC9081086, “Stapling strategy enables improvement of antitumor activity and proteolytic stability of host-defense peptide hymenochirin-1B” (RSC Advances, 2018).

Structures are written as SMILES. Positions of bridges follow the written chain, without caps; N, C: chain ends. Non-standard residues stand in square brackets, D forms with d. Residues, ends and D or L forms follow the SMILES beside them. R8 = C=CCCCCCC[C@@](C)(N)C(=O)O; S5 = C=CCCC[C@](C)(N)C(=O)O

A short description of data set [1]: all-hydrocarbon stapling by ring-closing olefin metathesis between S5/S5 (i,i+4) or R8/S5 (i,i+7) olefinic residues, Grubbs 1st-generation catalyst (10 mM in DCE per text; 6 mM per schemes), 2 x 2 h, on Rink Amide MBHA resin. The conditions noted are these: the molecule shown is the open-chain precursor, 35.0 °C, 4.0 h, 60 steps.
Data set [2] in a line: Circular dichroism, α-helicity. It is filed as physicochemical. The settings on record: CD, TFE/water (1:1), 50 μM peptide, 25 °C, 1 mm cuvette, calculated from [θ]222. The procedure: The linear and stapled peptides were dissolved in the trifluoroethanol (TFE) and water (1 : 1) to a final concentration of 50 μM, respectively. The CD spectra were obtained with 1 mm quartz cuvette on Jasco-815 spectropolarimeter at 25 °C. The measurement parameters were set up as follows: wavelength, 185–260 nm; step resolution, 0.5 nm; speed, 20 nm min^−1. All spectra were converted to a uniform scale of molar ellipticity after background subtraction. The curves were smoothed using standard parameters. The ellipticity in the acquired CD spectra was converted to the molar ellipticity using the equation: [θ] = θ/(10 × c × l), where, [θ] is the Molar ellipticity (deg cm^2. d mol^−1), θ is the observed ellipticity corrected for the buffer at a given wavelength (m deg), c is the molar concentration and l is the path length (cm). The helicity of each peptide was calculated as described in a literature based on the ellipticity of the peptide's spectrum at 222 nm and the number of amino acids in the peptide sequence.
Circular dichroism (CD) spectroscopy was used to investigate the secondary structures of the stapled and template peptides to probe structural changes induced by conformation constraint in a membrane-like milieu, including […] (TFE) and water (1 : 1). […] (Table 1, ESI ^†).

Data set [3] has as its system human normal liver cell LO-2. In words: MTT toxicity against normal cells, LO-2. It is filed as cell-based. The settings on record: 96 h. The procedure:
(§1) Anti-tumor activity was evaluated by the standard MTT assay with a slight modification measuring the median inhibitory concentration (IC50) values.[35] HCT-116 cells, HepG2 cells and A549 cells were plated in triplicate wells into a 96-well plate at 5 × 10^3/well and cultured routinely for 24 h. Cells were incubated with increasing concentrations of hymenochirin-1B and its analogs (0.1–30 μM) and continued to culture with DMEM plus 10% FBS at 37 °C and 5% CO2. After being incubated for 96 h, the absorbance A value was determined by MTT at 540 nm. The untreated HCT-116 cells, HepG2 cells and A549 cells were used as control. Each experiment was performed in duplicate. The inhibitory rate was calculated according to the following formula: inhibitory rate = (a value of the control group − a value of the study group)/a value of the control group × 100%.
(§2) To further research the selectivity of these peptides towards cancer cells over normal cells. The growth-inhibitory activities of peptides were evaluated using the 3-(4,5-dimethylthiazol-2-yl)-2,5-diphenyltetrazolium bromide (MTT) assay against three normal cells,[35] namely, human normal liver cell LO-2, human normal Lung cell BEAS-2 and human normal kidney cell 293 T (Table S2 ^†). The experiments procedure was performed just same as growth inhibition of the peptides against tumor cells. […] It might be due to the higher averaged hydrophobicity produced by six or nine additional methylene and two olefinic carbons to the peptide to increase toxicity to human normal cells. This situation may be resolved through the addition of polar character and glycosylation into the sequence to decrease the averaged hydrophobicity to improve the selectivity of these peptides towards cancer cells over normal cells. These modifications of these peptides are under way, and the present study was focused on the improved anti-tumor activity of template peptide hymenochirin-1B.

Data set [4] has as its system human normal Lung cell BEAS-2. In words: MTT toxicity against normal cells, BEAS-2B. It is filed as cell-based. The settings on record: 96 h. How it is done:
as §1, §2

In data set [5] the test system is human normal kidney cell 293 T. In words: MTT toxicity against normal cells, 293T. It is filed as cell-based. The conditions noted are these: 96 h. How it is done: as §1, §2

`C=CCCCCCC[C@@](C)(NC(=O)[C@@H](NC(=O)[C@H](C)NC(=O)CNC(=O)[C@H](CCCCNC(=O)OC(C)(C)C)NC(=O)[C@H](CC(C)C)NC(=O)[C@@H](NC(=O)[C@H](CCCCNC(=O)OC(C)(C)C)NC(=O)[C@H](CCCCNC(=O)OC(C)(C)C)NC(=O)[C@H](CC(C)C)NC(=O)[C@H](CC(=O)NC(c1ccccc1)(c1ccccc1)c1ccccc1)NC(=O)[C@H](CC(=O)OC(C)(C)C)NC(=O)[C@H](CCCCNC(=O)OC(C)(C)C)NC(=O)[C@@H](NC(=O)[C@H](CCC(=O)OC(C)(C)C)NC(=O)[C@@H]1CCCN1C(=O)[C@H](COC(C)(C)C)NC(=O)[C@H](CC(C)C)NC(=O)[C@H](CCCCNC(=O)OC(C)(C)C)NC(=O)[C@@H](NC(=O)OCC1c2ccccc2-c2ccccc21)[C@@H](C)CC)[C@@H](C)OC(C)(C)C)C(C)C)[C@@H](C)CC)C(=O)NCC(=O)N[C@@H](C)C(=O)N[C@H](C(=O)N[C@@H](C)C(=O)N[C@H](C(=O)N[C@@H](C)C(=O)N[C@@](C)(CCCC=C)C(=O)N[C@@H](CCSC)C(=O)N[C@H](C(N)=O)C(C)C)C(C)C)[C@@H](C)CC`: the ring closure, overall yield in data set [1] (33-membered ring, 1,2-dichloroethane) is 7.25%.

Regarding `CC[C@H](C)[C@H](N)C(=O)N[C@@H](CCCCN)C(=O)N[C@@H](CC(C)C)C(=O)N[C@@H](CO)C(=O)N1CCC[C@H]1C(=O)N[C@@H](CCC(=O)O)C(=O)N[C@H](C(=O)N[C@@H](CCCCN)C(=O)N[C@@H](CC(=O)O)C(=O)N[C@]1(C)CCCCCCC=CCCC[C@@](C)(C(=O)N[C@@H](C)C(=O)N[C@H](C(=O)N[C@@H](CCCCN)C(=O)NCC(=O)N[C@@H](C)C(=O)N[C@H](C(=O)N[C@@H](C)C(=O)N[C@H](C(=O)N[C@@H](C)C(=O)N[C@@H](CCCCN)C(=O)N[C@@H](CCSC)C(=O)N[C@H](C(N)=O)C(C)C)C(C)C)[C@@H](C)CC)[C@@H](C)CC)NC(=O)[C@H](CCCCN)NC(=O)[C@H](CC(C)C)NC(=O)[C@H](C(C)C)NC(=O)[C@H](CCCCN)NC(=O)[C@H](CCCCN)NC(=O)[C@H](CC(C)C)NC1=O)[C@@H](C)O` [H-3] (H-IKLSPETKD[R8]LKKVLK[S5]AIKGAIAVAKMV-NH2; staple 10-17), the “Helicity (%)” value in data set [2] is listed as 65.7%. For the same compound, in data set [3], the “IC50 (μM) LO-2, toxicity against normal cells” value (“IC50 (μM) LO-2, toxicity” below) was 7.61 ± 0.43 µM. For the same compound, the “IC50 (μM) BEAS-2B, toxicity against normal cells” value (“IC50 (μM) BEAS-2B, toxicity” below) in data set [4] worked out at 7.95 ± 0.36 µM. Further, the “IC50 (μM) 293T, toxicity against normal cells” value (shortened to “IC50 (μM) 293T, toxicity”) in data set [5] turned out to be 4.58 ± 0.34 µM.

Consider `C=CCCC[C@](C)(NC(=O)[C@H](CCCCNC(=O)OC(C)(C)C)NC(=O)[C@@H](NC(=O)[C@H](CCC(=O)OC(C)(C)C)NC(=O)[C@](C)(CCCC=C)NC(=O)[C@H](COC(C)(C)C)NC(=O)[C@H](CC(C)C)NC(=O)[C@H](CCCCNC(=O)OC(C)(C)C)NC(=O)[C@@H](NC(=O)OCC1c2ccccc2-c2ccccc21)[C@@H](C)CC)[C@@H](C)OC(C)(C)C)C(=O)N[C@@H](CC(=O)NC(c1ccccc1)(c1ccccc1)c1ccccc1)C(=O)N[C@@H](CC(C)C)C(=O)N[C@@H](CCCCNC(=O)OC(C)(C)C)C(=O)N[C@@H](CCCCNC(=O)OC(C)(C)C)C(=O)N[C@H](C(=O)N[C@@H](CC(C)C)C(=O)N[C@@H](CCCCNC(=O)OC(C)(C)C)C(=O)NCC(=O)N[C@@H](C)C(=O)N[C@H](C(=O)N[C@@H](CCCCNC(=O)OC(C)(C)C)C(=O)NCC(=O)N[C@@H](C)C(=O)N[C@H](C(=O)N[C@@H](C)C(=O)N[C@H](C(=O)N[C@@H](C)C(=O)N[C@@H](CCCCNC(=O)OC(C)(C)C)C(=O)N[C@@H](CCSC)C(=O)N[C@H](C(N)=O)C(C)C)C(C)C)[C@@H](C)CC)[C@@H](C)CC)C(C)C`, for which the ring closure, overall yield in data set [1] (21-membered ring, 1,2-dichloroethane) was 11.4%.

For the compound `CC[C@H](C)[C@H](N)C(=O)N[C@@H](CCCCN)C(=O)N[C@@H](CC(C)C)C(=O)N[C@@H](CO)C(=O)N1CCC[C@H]1C(=O)N[C@@H](CCC(=O)O)C(=O)N[C@H](C(=O)N[C@@H](CCCCN)C(=O)N[C@@H](CC(=O)O)C(=O)N[C@@H](CC(N)=O)C(=O)N[C@@H](CC(C)C)C(=O)N[C@@H](CCCCN)C(=O)N[C@@H](CCCCN)C(=O)N[C@H](C(=O)N[C@@H](CC(C)C)C(=O)N[C@@H](CCCCN)C(=O)NCC(=O)N[C@@H](C)C(=O)N[C@H](C(=O)N[C@@H](CCCCN)C(=O)NCC(=O)N[C@@]1(C)CCCC=CCCC[C@@](C)(C(=O)N[C@@H](CCCCN)C(=O)N[C@@H](CCSC)C(=O)N[C@H](C(N)=O)C(C)C)NC(=O)[C@H](C(C)C)NC(=O)[C@H](C)NC(=O)[C@H]([C@@H](C)CC)NC1=O)[C@@H](C)CC)C(C)C)[C@@H](C)O` [H-7] (H-IKLSPETKDNLKKVLKGAIKG[S5]IAV[S5]KMV-NH2; staple 22-26), the “Helicity (%)” value in data set [2] was 65.9%. Besides, in data set [3], the “IC50 (μM) LO-2, toxicity” value was 6.52 ± 0.32 µM. Also, the “IC50 (μM) BEAS-2B, toxicity” value in data set [4] was determined as 7.50 ± 0.32 µM. Further, in data set [5], the “IC50 (μM) 293T, toxicity” value turned out to be 7.25 ± 0.26 µM.

Regarding `CC[C@H](C)[C@H](N)C(=O)N[C@@H](CCCCN)C(=O)N[C@@H](CC(C)C)C(=O)N[C@@H](CO)C(=O)N[C@@]1(C)CCCC=CCCC[C@@](C)(C(=O)N[C@@H](CC(N)=O)C(=O)N[C@@H](CC(C)C)C(=O)N[C@@H](CCCCN)C(=O)N[C@@H](CCCCN)C(=O)N[C@H](C(=O)N[C@@H](CC(C)C)C(=O)N[C@@H](CCCCN)C(=O)NCC(=O)N[C@@H](C)C(=O)N[C@H](C(=O)N[C@@H](CCCCN)C(=O)NCC(=O)N[C@@H](C)C(=O)N[C@H](C(=O)N[C@@H](C)C(=O)N[C@H](C(=O)N[C@@H](C)C(=O)N[C@@H](CCCCN)C(=O)N[C@@H](CCSC)C(=O)N[C@H](C(N)=O)C(C)C)C(C)C)[C@@H](C)CC)[C@@H](C)CC)C(C)C)NC(=O)[C@H](CCCCN)NC(=O)[C@H]([C@@H](C)O)NC(=O)[C@H](CCC(=O)O)NC1=O` [H-1] (H-IKLS[S5]ETK[S5]NLKKVLKGAIKGAIAVAKMV-NH2; staple 5-9), the “Helicity (%)” value in data set [2] is 49.0%. In data set [3], the “IC50 (μM) LO-2, toxicity” value was 7.80 ± 0.21 µM. Moreover, in data set [4], the “IC50 (μM) BEAS-2B, toxicity” value stood at 9.61 ± 0.35 µM. Further, the “IC50 (μM) 293T, toxicity” value in data set [5] was 5.82 ± 0.45 µM.

For `CC[C@H](C)[C@H](N)C(=O)N[C@@H](CCCCN)C(=O)N[C@@H](CC(C)C)C(=O)N[C@@H](CO)C(=O)N1CCC[C@H]1C(=O)N[C@@H](CCC(=O)O)C(=O)N[C@H](C(=O)N[C@@H](CCCCN)C(=O)N[C@@H](CC(=O)O)C(=O)N[C@@H](CC(N)=O)C(=O)N[C@@H](CC(C)C)C(=O)N[C@@H](CCCCN)C(=O)N[C@@H](CCCCN)C(=O)N[C@H](C(=O)N[C@@H](CC(C)C)C(=O)N[C@@H](CCCCN)C(=O)NCC(=O)N[C@@H](C)C(=O)N[C@H](C(=O)N[C@@]1(C)CCCC=CCCC[C@@](C)(C(=O)N[C@H](C(=O)N[C@@H](C)C(=O)N[C@@H](CCCCN)C(=O)N[C@@H](CCSC)C(=O)N[C@H](C(N)=O)C(C)C)C(C)C)NC(=O)[C@H]([C@@H](C)CC)NC(=O)[C@H](C)NC(=O)CNC1=O)[C@@H](C)CC)C(C)C)[C@@H](C)O` [H-8] (H-IKLSPETKDNLKKVLKGAI[S5]GAI[S5]VAKMV-NH2; staple 20-24), the “Helicity (%)” value in data set [2] is 60.5%. Further, the “IC50 (μM) LO-2, toxicity” value in data set [3] was 24.82 ± 0.44 µM. The “IC50 (μM) BEAS-2B, toxicity” value in data set [4] was determined as 12.82 ± 0.25 µM. In data set [5], the “IC50 (μM) 293T, toxicity” value turned out to be 15.58 ± 0.36 µM.
